Experiments:
MATIN [1] = assay: Pre-emergence herbicidal action against MATIN; type: in vivo, Matricaria inodora
In short: (§1)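 Herbicidal effect was assessed 3 weeks after treatment by visual comparison with untreated controls, 100% denoting dead plants. Aqueous WP or EC preparations had been applied at 600 to 800 l/ha with 0.2% wetting agent to the soil covering freshly sown seeds.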

AMARE [2] = assay: Pre-emergence herbicidal action against AMARE; type: in vivo, Amaranthus retroflexus
In short: as §1

PHBPU [3] = assay: Pre-emergence herbicidal action against PHBPU; type: in vivo, Pharbitis purpurea; conditions: dosage 80 g/ha
In short: as §1

MATIN [4] = assay: Post-emergence herbicidal action against MATIN; type: in vivo, Matricaria inodora
In short: (§2)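 Herbicidal effect was scored visually in percent after about 3 weeks in the greenhouse. Plants had been raised in sandy loam and treated post-emergence at the one-leaf stage with formulated compound at 600 to 800 l/ha water plus 0.2% wetting agent.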

ABUTH [5] = assay: Post-emergence herbicidal action against ABUTH; type: in vivo, Abutilon theophrasti; conditions: visual assessment about 3 weeks after treatment vs untreated controls
In short: as §2

DIGSA [6] = assay: Post-emergence herbicidal action against DIGSA; type: in vivo, Digitaria sanguinalis; conditions: for Post-emergence action against DIGSA in %: 5 g/ha; for Post-emergence action against DIGSA: 20 g/ha
In short: as §2

SETVI [7] = assay: Post-emergence herbicidal action against SETVI; type: in vivo, Setaria viridis
In short: as §2

ALOMY [8] = assay: Post-emergence herbicidal action against ALOMY; type: in vivo, Alopecurus myosuroides; conditions: dosage 20 g/ha, visual assessment about 3 weeks after treatment vs untreated controls
In short: as §2

ABUTH [9] = assay: Pre-emergence herbicidal action against ABUTH; type: in vivo, Abutilon theophrasti; conditions: for Pre-emergence action against ABUTH (herbicidal activity): 80 g/ha, scored visually after 3 weeks vs untreated controls (100% = plants have died, 0% = like control plants); for Pre-emergence action against ABUTH (herbicidal activity in percent): dosage 20 g/ha, scored visually after 3 weeks vs untreated controls, 100% = plants have died, 0% = like control plants
In short: as §1

DIGSA [10] = assay: Pre-emergence herbicidal action against DIGSA; type: in vivo, Digitaria sanguinalis
In short: as §1

ECHCG [11] = assay: Pre-emergence herbicidal action against ECHCG; type: in vivo, Echinochloa crus-galli; conditions: 80 g/ha
In short: as §1

SETVI [12] = assay: Pre-emergence herbicidal action against SETVI; type: in vivo, Setaria viridis
In short: as §1

VIOTR [13] = assay: Pre-emergence herbicidal action against VIOTR; type: in vivo, Viola tricolor
In short: as §1

PHBPU [14] = assay: Post-emergence herbicidal action against PHBPU; type: in vivo, Pharbitis purpurea
In short: as §2

VIOTR [15] = assay: Post-emergence herbicidal action against VIOTR; type: in vivo, Viola tricolor
In short: as §2

POLCO = assay: Pre-emergence herbicidal action against POLCO; type: in vivo, Polygonum convolvulus
In short: as §1

VERPE [16] = assay: Pre-emergence herbicidal action against VERPE; type: in vivo, Veronica persica
In short: as §1

VERPE [17] = assay: Post-emergence herbicidal action against VERPE; type: in vivo, Veronica persica
In short: as §2

ECHCG [18] = assay: Post-emergence herbicidal action against ECHCG; type: in vivo, Echinochloa crus-galli
In short: as §2

AMARE [19] = assay: Post-emergence herbicidal action against AMARE; type: in vivo, Amaranthus retroflexus; conditions: 20 g/ha, visual assessment about 3 weeks after treatment, 100% = plants have died, 0% = like control plants
In short: as §2

ALOMY [20] = assay: Pre-emergence herbicidal action against ALOMY; type: in vivo, Alopecurus myosuroides; conditions: 80 g/ha, pre-emergence, scored visually after 3 weeks vs untreated controls (100% = plants have died, 0% = like control plants)
In short: as §1

AVEFA = assay: Pre-emergence herbicidal action against AVEFA; type: in vivo, Avena fatua; conditions: 80 g/ha, pre-emergence
In short: as §1

[21] = 20 g/ha, scored visually after 3 weeks vs untreated controls, 100% = plants have died, 0% = like control plants
[22] = 80 g/ha, scored visually after 3 weeks vs untreated controls (100% = plants have died, 0% = like control plants)

Structure (SMILES) | Pre-emergence action against MATIN in % (MATIN [1]; dosage 20 g/ha) [%] | Pre-emergence action against MATIN in % (MATIN [1]; dosage 80 g/ha) [%] | Pre-emergence action against AMARE in % (AMARE [2]; [21]) [%] | Pre-emergence action against AMARE in % (AMARE [2]; [22]) [%] | Pre-emergence action against PHBPU in % (PHBPU [3]) [%] | Post-emergence action against MATIN in % (MATIN [4]; dosage 20 g/ha) [%] | Post-emergence action against ABUTH in % (ABUTH [5]; dosage 20 g/ha) [%] | Post-emergence action against ALOMY in % (ALOMY [8]) [%] | Pre-emergence action against ABUTH (herbicidal activity) (ABUTH [9]) [%] | Pre-emergence action against ABUTH (herbicidal activity in percent) (ABUTH [9]) [%] | Pre-emergence action against DIGSA in % (DIGSA [10]; dosage 20 g/ha) [%] | Pre-emergence action against DIGSA in % (DIGSA [10]; dosage 80 g/ha) [%] | Pre-emergence action against ECHCG in % (ECHCG [11]) [%] | Pre-emergence action against SETVI in % (SETVI [12]; dosage 80 g/ha) [%] | Pre-emergence action against VIOTR in % (VIOTR [13]; dosage 80 g/ha) [%] | Pre-emergence action against POLCO in % (POLCO; dosage 80 g/ha) [%] | Pre-emergence action against VERPE in % (VERPE [16]; dosage 80 g/ha) [%] | Post-emergence action against VERPE in % (VERPE [17]; 20 g/ha) [%] | Post-emergence action against ECHCG in % (ECHCG [18]; dosage 20 g/ha) [%] | Pre-emergence action against ALOMY (herbicidal activity) (ALOMY [20]) [%] | also measured
CCn1nnnc1NC(=O)c1ccc(C(F)(F)F)c(C(=O)NC)c1OC [Example 2-56] | 90 | 100 | 100 | 100 | 80 | 90 | 100 | 80 | 100 | 100 | 100 | 100 | 90 | 100 | 90 | 90 | 100 | 80 | 100 | 90 | Post-emergence action against MATIN in % (MATIN [4]; dosage 5 g/ha): 80%; Post-emergence action against ABUTH in % (ABUTH [5]; dosage 5 g/ha): 100%; Post-emergence action against DIGSA in % (DIGSA [6]): 90%; Post-emergence action against DIGSA (DIGSA [6]): 100%; Post-emergence action against SETVI in % (SETVI [7]; dosage 5 g/ha): 80%; Post-emergence action against SETVI in % (SETVI [7]; dosage 20 g/ha): 100%; Pre-emergence action against SETVI in % (SETVI [12]; dosage 20 g/ha): 100%; Pre-emergence action against VIOTR in % (VIOTR [13]; dosage 20 g/ha): 80%; Post-emergence action against PHBPU in % (PHBPU [14]; dosage 5 g/ha): 80%; Post-emergence action against PHBPU in % (PHBPU [14]; dosage 20 g/ha): 90%; Post-emergence action against VIOTR in % (VIOTR [15]; 5 g/ha): 80%; Post-emergence action against VIOTR in % (VIOTR [15]; 20 g/ha): 100%; Pre-emergence action against VERPE in % (VERPE [16]; dosage 20 g/ha): 80%; Post-emergence action at 20 g/ha against AMARE in % (AMARE [19]): 100%
CCn1nnnc1NC(=O)c1ccc(C(F)F)c(C(=O)NC2CC2)c1OC [Example 2-74] | 100 | 100 | 100 | 100 | 90 | 80 | 80 | 80 | 100 | 100 | 100 | 100 | 100 | 100 | 100 | 80 | 90 | 80 | 80 | 100 | Post-emergence action against ABUTH in % (ABUTH [5]; dosage 5 g/ha): 80%; Post-emergence action against SETVI in % (SETVI [7]; dosage 20 g/ha): 90%; Pre-emergence action against VIOTR in % (VIOTR [13]; dosage 20 g/ha): 100%; Post-emergence action against PHBPU in % (PHBPU [14]; dosage 20 g/ha): 80%; Post-emergence action against VIOTR in % (VIOTR [15]; 20 g/ha): 80%; Post-emergence action against ECHCG in % (ECHCG [18]; dosage 5 g/ha): 80%; Pre-emergence action against AVEFA in % (AVEFA): 80%
CCn1nnnc1NC(=O)c1ccc(Br)c(C(=O)NC(C)C2CC2)c1Cl (stereo not shown) [Example 2-183] | 90 | 100 | 90 | 100 | 90 | 90 | – | 80 | 100 | 100 | 90 | 100 | 90 | 100 | 100 | 90 | 90 | 90 | 90 | 90 | Post-emergence action against MATIN in % (MATIN [4]; dosage 5 g/ha): 80%; Post-emergence action against PHBPU in % (PHBPU [14]; dosage 20 g/ha): 80%; Post-emergence action against VIOTR in % (VIOTR [15]; 5 g/ha): 100%; Post-emergence action against VIOTR in % (VIOTR [15]; 20 g/ha): 100%; Pre-emergence action against POLCO in % (POLCO; dosage 20 g/ha): 90%; Pre-emergence action against AVEFA in % (AVEFA): 80%
CCn1nnnc1NC(=O)c1ccc(C(F)(F)F)c(C(=O)NCC2CC2)c1C1CC1 [Example 2-289] | 90 | 100 | 100 | 100 | 80 | 90 | 80 | 90 | 100 | 100 | 100 | 100 | 100 | 90 | 100 | 80 | 100 | 100 | 90 | 90 | Post-emergence action against MATIN in % (MATIN [4]; dosage 5 g/ha): 80%; Post-emergence action against DIGSA in % (DIGSA [6]): 90%; Post-emergence action against DIGSA (DIGSA [6]): 100%; Post-emergence action against SETVI in % (SETVI [7]; dosage 20 g/ha): 80%; Pre-emergence action against VIOTR in % (VIOTR [13]; dosage 20 g/ha): 100%; Post-emergence action against PHBPU in % (PHBPU [14]; dosage 20 g/ha): 90%; Post-emergence action against VIOTR in % (VIOTR [15]; 20 g/ha): 90%; Post-emergence action against VERPE in % (VERPE [17]; 5 g/ha): 80%; Post-emergence action against ECHCG in % (ECHCG [18]; dosage 5 g/ha): 80%; Post-emergence action at 20 g/ha against AMARE in % (AMARE [19]): 100%
Cc1nnc(NC(=O)c2ccc(C(F)F)c(C(=O)NC(C)C3CC3)c2C)o1 (stereo not shown) [Example 6-258] | – | 90 | 100 | 100 | 90 | – | 90 | 80 | 100 | 100 | 100 | 100 | 100 | 80 | 80 | 80 | 100 | 80 | 90 | 90 | Post-emergence action against ABUTH in % (ABUTH [5]; dosage 5 g/ha): 80%; Post-emergence action against DIGSA (DIGSA [6]): 90%; Pre-emergence action against VERPE in % (VERPE [16]; dosage 20 g/ha): 90%; Post-emergence action against ECHCG in % (ECHCG [18]; dosage 5 g/ha): 80%; Post-emergence action at 20 g/ha against AMARE in % (AMARE [19]): 90%

Source: patent publication US12655116B2, “Substituted isophthalic acid diamides” (Bayer Aktiengesellschaft, priority 2020, dated 2026)
